Read-outs that look alike come from different tables or passages of the source.
Key:
[1] = test system: functional bowel disorders; assay type: in vivo, human
Text: The symptoms of the two patients with GMD were abdominal pain located in the right upper quadrant and epigastrium, daily nausea, and intermittent vomiting exacerbated by eating and by the luteal phase of the menstrual cycle. The two patients with IIHVN had abdominal pain, nausea, and intermittent vomiting, and also had urinary tract involvement consisting of pain and a decrease in urination. The fifth patient had Roux-en-Y syndrome (defined as epigastric-to-right-upper-quadrant pain, nausea, and vomiting increased by eating) after surgical construction of a gastro-jejunal Roux-en-Y anastomosis. The mean duration of these symptoms was eight years (Table 1). All subjects had undergone extensive blood testing, several upper gastrointestinal x-ray series, barium enemas, esophagogastroduodenoscopy, endoscopic retrograde cholangiopancreatography, gastric emptying tests with radiolabeled meal, ultrasound of the abdomen, computerized axial tomography of the abdomen, and many other tests. The results of all tests were normal, except for prolonged gastric emptying in the patient with the Roux-en-Y Syndrome. Because of their intractable clinical problem, these patients were included in the test protocol with leuprolide acetate. Protocol: The symptoms of each patient were first assessed, and their tests evaluated. Each patient kept a daily symptom diary. Leuprolide acetate was obtained by prescription as Lupron (TAP pharmaceuticals, Abbott Labs, North Chicago, Ill.). One multi-use vial of Lupron comprised of […] Leuprolide Acetate. A daily dose of 0.5 mg ([…]) was self-administered by subcutaneous injection, for a period of three months. Each patient was examined at 0, 1 and 3 months of treatment. After the third month, leuprolide was continued as previously, and estrogen (0.625 mg orally) and calcium (1000 mg orally) were also administered. At the end of the sixth month, a two week withdrawal period from leuprolide acetate ensued. During this period a 10 mg oral dose of progesterone was given to pre-menopausal patients, to assess recurrence of symptoms and to induce menses. Post-menopausal women were not treated with progesterone during the two week withdrawal period. This procedure was then continued for an additional six months, with drug withdrawal and progesterone given every three months to induce a menstrual cycle. Serum estradiol, progesterone, FSH, and LH were quantitated by radioimmunoassay prior to the initiation of leuprolide treatment, and at three months post treatment initiation. The procedure of example 1 was followed with additional patients. […] One patient listed as a failure elected to withdraw from the program after four weeks of treatment. One patient after recovering from the symptoms of their autonomic neuropathy expired from a massive myocardial infarction (Responded--expired). These patients were treated with Leuprolide acetate following the protocol established in Example 1.

[2] = test system: motility of stomach and small intestine; assay: Motility recordings (duodenal jejunal manometry) and hydrogen breath test in SLE patients; assay type: in vivo, human
Procedure: Motility recordings of the stomach and small intestine were performed with a ultraminiature force-transducer probe (Millar Instruments, Houston, Tex.). Pressure readings from the probe were recorded on an R612 physiologic recorder fitted with Model 9872 couplers (SenorMedics, Yorba Linda, Calif.). After the probe was passed transnasally and placed fluoroscopically, a 12 hour recording of the patient was made with the patient in the fasted state. They then drank a 240-ml liquid meal (ENSURE), and the recording was continued for three hours to evaluate conversion from the fasting pattern to fed-state motor activity. During the fasting state, this patient had three poorly formed and disorganized migrating motor complexes, whereas the normal range expected is 6-8, or a mean of 7.4 in the 12 hour recording period. […] The patient was diagnosed as having chronic intestinal pseudo-obstruction associated with sero-negative SLE.

In the case of `CCNC(=O)[C@@H]1CCCN1C(=O)[C@H](CCCNC(=N)N)NC(=O)[C@H](CC(C)C)NC(=O)[C@@H](CC(C)C)NC(=O)[C@H](Cc1ccc(O)cc1)NC(=O)[C@H](CO)NC(=O)[C@H](Cc1c[nH]c2ccccc12)NC(=O)[C@H](Cc1c[nH]cn1)NC(=O)[C@@H]1CCC(=O)N1` [Leuprolide acetate, leuprolide acetate], the “Duration of therapy until symptom free” value ([1]; Patient 7) is reported as at most 8 weeks, the Response ([1]; Patient 7, Pelvic Floor Dysfunction) is reported as “symptom free” and the Response ([1]; Patient 7, Pelvic Floor Dysfunction, listed as leuprolide) is reported as “Responded”. For the same compound, the Response ([1]; Patient 8, Chronic Intestinal Pseudo Obstruction, listed as leuprolide) was “Responded”, the Response ([1]; Patient 8, Chronic Intestinal Pseudo Obstruction, listed as leuprolide acetate) was “does not chronically experience severe symptoms” and the “Hospital admissions since therapy was begun” value ([1]; Patient 8, before: at least one week per month in hospital) was “no hospital admissions”. For the same compound, the Response ([1]; Patient 9, Roux-en-Y-Syndrome) was “Responded”, the Response ([1]; Patient 10, Roux-en-Y-Syndrome, withdrew) was “Failure” and the Response ([1]; Patient 11, Chronic Intestinal Pseudo Obstruction, side effects) was “Failure”. For the same compound, the Response ([1]; Patient 12, Roux-en-Y-Syndrome, expired) was “Failure”, the “Need for parental alimentation for weight control” value ([1]; Patient 13) was “no longer requires parental alimentation” and the Urination ([1]; Patient 13) was “improved”. For the same compound, the Response ([1]; Patient 13, Idiopathic Intestinal Hollow Visceral Myopathy/Neuropathy, protocol of example 1) was “improved dramatically”, the Response ([1]; Patient 13, Idiopathic Intestinal Hollow Visceral Myopathy/Neuropathy, protocol of example 1, listed as leuprolide) was “Responded” and the Response ([1]; Patient 14, Pelvic Floor Dysfunction) was “Failure”. The “Need for parental supplementation” value ([1]; Patient 15) was “requires no parental supplementation”, the Response ([1]; Patient 15, Chronic Intestinal Pseudo Obstruction) was “steadily improved” and the Response ([1]; Patient 15, Chronic Intestinal Pseudo Obstruction, listed as leuprolide) was “Responded”. For the same compound, the Response ([1]; Patient 16, Roux-en-Y-Syndrome) was “relieved”, the Response ([1]; Patient 16, Roux-en-Y-Syndrome, listed as leuprolide) was “Responded” and the “Body weight maintained under therapy” value ([1]; Patient 16, weight before 96 pounds) was 115-118 pounds. For the same compound, the “Theophylline requirement for lung disease” value ([1]; Patient 17) was “smaller dose of Theophylline is now required”, the Response ([1]; Patient 17, Gastrointestinal Motor Dysfunction, protocol of example 1) was “abated” and the Response ([1]; Patient 17, Gastrointestinal Motor Dysfunction, protocol of example 1, listed as leuprolide) was “Responded”. The Pulmonary function tests ([1]; Patient 17, chronic obstructive lung disease) was “dramatic improvement”, the Response ([1]; Patient 18, Idiopathic Intestinal Hollow Visceral Myopathy/Neuropathy, protocol of example 1) was “all of their symptoms have improved except for their obstipation” and the Response ([1]; Patient 18, Idiopathic Intestinal Hollow Visceral Myopathy/Neuropathy, protocol of example 1, listed as leuprolide) was “Responded”. The “Duration of therapy after which all symptoms had disappeared” value ([1]; Patient 19) was 6 weeks, the Response ([1]; Patient 19, Gastrointestinal Motor Dysfunction, protocol of example 1, listed as leuprolide) was “Responded” and the “Course after the drug was discontinued” value ([1]; Patient 19, discontinued after six months of treatment) was “no recurrent disease”. For the same compound, the Response ([1]; Patient 20, Gastrointestinal Motor Dysfunction, protocol of example 1) was “symptom-free”, the Response ([1]; Patient 20, Gastrointestinal Motor Dysfunction, protocol of example 1, listed as leuprolide) was “Responded” and the Response ([1]; Patient 21, Gastrointestinal Motor Dysfunction) was “Responded”. For the same compound, the Swallowing and eating ([1]; Patient 22) was “now able to swallow and eat”, the Response ([1]; Patient 22, Gastrointestinal Motor Dysfunction, response seen after three weeks of therapy) was “dramatic response” and the Response ([1]; Patient 22, Gastrointestinal Motor Dysfunction, response seen after three weeks of therapy, listed as leuprolide) was “Responded”. The “Need of opiates for pain” value ([1]; Patient 23) was “did not require opiates for pain”, the Response ([1]; Patient 23, Roux-en-Y-Syndrome) was “Responded” and the Response ([1]; Patient 23, Roux-en-Y-Syndrome, listed as Lupron) was “symptom free”. The “Side effects leading to withdrawal from treatment” value ([1]; human, in vivo) was “bone pain”, the “Number of patients who failed to respond” value ([1]; of the twenty-six treated to date) was “Four” and the “Response of the majority of patients” value ([1]; twenty-six patients treated to date) was “full recovery”. For the same compound, the “Motility pattern upon the liquid meal” value ([2]; SLE patient 4, after six months of therapy, failed to convert before) was “converted to the fed state”, the “Cycling migrating motor complexes in the motility recording” value ([2]; SLE patient 4, after six months of therapy, virtually no motility before, normal range 6-8 per 12 hour) was “six” and the “Migrating motor complexes per 12 hour recording session” value ([2]; SLE patient 5, 1.75 mg daily s.c., after six months, absence of motility before) was “Ten”. The “Motility pattern after intake of the liquid meal” value ([2]; SLE patient 5, after six months of therapy, failed to convert before) was “converted to the fed state pattern” and the “Hydrogen breath test (oral to cecal transit time)” value ([2]; SLE patient 5, after six months of therapy, markedly prolonged before) was “unchanged”.

Source: US5434136A, “Treatment of motility disorders with a GNRH analog” (priority 1992, dated 1995)
